Laboratory results: patent US10709724B2, “Methods of treating mitochondrial dysfunction” (Ecole Polytechnique Federale de Lausanne (EPFL), priority 2011, dated 2020)

System: C57Bl/6J mice
Experiment: Long-term NR supplementation of chow or high-fat diet fed mice
Assay type: in vivo
Experimental: Animal Experiments. Male PARP-1^+/+ and PARP-1^−/− mice on a pure C57Bl/6J background (Menissier-de Murcia et al., 1997) were used. Mice were housed separately, had ad libitum access to water and standard rodent chow (10 kcal % of fat, Safe, Augy, France) or to a high calorie, high fat diet (60 kcal % of fat, Research. Diets, New Brunswick, N.J., USA), and were kept under a 12 h dark-light cycle. In other animal experiments, 8 weeks-old male C57Bl/6J mice were purchased from Charles River and powder chow (D12450B) and high fat (D12492) diets were from Research Diets Inc (New Brunswick, N.J., USA). 80 ml of water per kg of powder CD were used to make food pellets. 40 ml of water per kg of powder HFD were used to make food pellets. For NR, NMN and NA supplemented diets, the appropriate amount of these compounds was added to the water used to create the pellets, taking into account the differences in the daily intake of each diet. Mice were housed separately, had ad libitum access to water and food and were kept under a 12 h dark-light cycle. Mice were fed with homemade pellets from 10 weeks of age. To make the pellets, the powder food was mixed with water (vehicle) or with NR. All animal experiments were carried out according to local national and EU ethical guidelines. To monitor body weight, mice were weighed and the food consumption was measured each week on the same day. In case of PJ34 treatment, mice received each 12 h (at 7:00 and 19:00) 10 mg/kg PJ34 by intraperitoneal injection for 5 continuous days. In all studies animals were killed (at 14:00) either after CO2 inhalation or cervical dislocation after 6 h of fasting (starting at 8:00), and tissues were collected and processed as specified below. Oral glucose tolerance test, intraperitoneal insulin tolerance test, free fatty acid (FFA) and triglycerides were determined as described (Lagouge et al., 2006). Plasma insulin and was determined in heparinized plasma samples using specific ELISA kits (Mercodia). Blood samples were collected in heparinized tubes and plasma was isolated after centrifugation. Plasma parameters were measured using a Cobas c111 (Roche Diagnostics). Thermoadaptation was performed as described (Lagouge et al., 2006). We measured O2 consumption, CO2 production, and spontaneous locomotor activity in an open circuit indirect calorimetry system (Sabre systems, Las Vegas, Nev., USA) over 24-48 has described (Dali-Youcef et al., 2007; Lagouge et al., 2006; Watanabe et al., 2006). […] The respiratory quotient was the ratio of CO2 production over O2 consumption. During actimetry, beamline crossings were summarized each 15 minutes. […] Euglycemic-hyperinsulinemic clamps were performed in PARP-1^−/− and ^+/+ male mice (n=4 mice per genotype; age=4 months) exactly as previously described (Feige et al, 2008).
Instruments, total body fat was measured by echoMRI as described (Lagouge et al., 2006; Watanabe et al., 2006). Endurance test was performed as described in (Canto et al., 2009). Intraperitoneal glucose and insulin tolerance tests (IPGTT and IPITT, respectively) were performed as previously described (Feige et al, 2008). The animals were killed after 6 h of fasting by CO2 asphyxiation and tissues were collected. Total body fat content was then examined at autopsy, by weighing the subcutaneous, gonadal, mesenterial, retroperitoneal and BAT associated fat depots. Liver triglyceride was determined after Folch extraction using a commercial triglyceride kit (Roche). Pancreas and plasma insulin content was determined from acidic extracts using a commercial ELISA kit (Mercodia) (Champy et al., 2004).
Histology and Microscopy. Haematoxylin-eosin (HE), Oil Red-O and succinate-dehydrogenase (SDH) stainings were performed on […] tissue sections as described (Lagouge et al., 2006; Picard et al., 2002). Transmission electron microscopy (TEM) investigation was performed on glutaraldehyde-fixed, osmium tetroxyde stained ultrafine sections (Watanabe et al., 2006). […]

NC(=O)c1ccc[n+]([C@@H]2O[C@H](CO)[C@@H](O)[C@H]2O)c1 [NR, nicotinamide riboside]
fasting insulin levels (16 weeks, 6 hr fast): much lower
thermogenic capacity (body temperature during cold exposure) (CD and HFD): enhanced thermogenic capacity
O2 consumption rates on CD (CD, NR 400 mg/kg/day): marked tendency to display higher O2 consumption rates
RER changes between feeding and fasting periods (CD, NR 400 mg/kg/day): higher amplitude of the changes in RER
body weight on chow diet (CD, NR 400 mg/kg/day): no effect
HDL-cholesterol levels (HFD): unaffected
HFD-induced increase in LDL cholesterol (HFD): partially prevented the increase
cristae of mitochondria in BAT (electron microscopy) (HFD): more abundant cristae
size of mitochondria in BAT (electron microscopy) (HFD): not being significantly larger
glucose tolerance (intraperitoneal glucose tolerance test) (HFD, 10 weeks): slight, albeit not significant, improvement in glucose tolerance
insulin secretion during glucose tolerance test (HFD, 10 weeks): robust reduction in insulin secretion
endurance performance on HFD (treadmill) (HFD, 12 weeks): significantly accentuated
HFD-induced increase in total cholesterol (HFD, 16 weeks, 6 hr fast): partially prevented the increase
O2 consumption rates on HFD (HFD, NR 400 mg/kg/day): clearly significant
fat mass (Echo-MRI) (HFD, NR 400 mg/kg/day, 8 weeks): reduced fat mass
HFD-induced body weight gain (HFD, NR 400 mg/kg/day, 12 weeks): significantly attenuated
activity pattern (NR 400 mg/kg/day): did not affect the activity pattern
liver triglycerides, less than vehicle-fed (NR 400 mg/kg/day): 40%
weight of the epididymal depot (NR 400 mg/kg/day): significant lower weight of the epididymal depot
food intake (NR 400 mg/kg/day, especially on HFD): tendency to eat more
endurance performance (NR-fed vs vehicle fed): clear tendency to display a better endurance performance
SDH staining of gastrocnemius muscle (mouse, in vivo): more intense SDH staining
